The experiment addresses T1, GLR-1(+STG-1, SOL-1) (Caenorhabditis elegans, UniProt P34299).
T1 construct: cRNAs of GLR-1, SOL-1 and STG-1 co-injected into Xenopus laevis oocytes; homomeric GLR-1 with auxiliary proteins; with CUB domain-containing protein SOL-1 (suppressor of lurcher 1); Stargazin-like protein STG-1
T1 sequence (P34299 26-962): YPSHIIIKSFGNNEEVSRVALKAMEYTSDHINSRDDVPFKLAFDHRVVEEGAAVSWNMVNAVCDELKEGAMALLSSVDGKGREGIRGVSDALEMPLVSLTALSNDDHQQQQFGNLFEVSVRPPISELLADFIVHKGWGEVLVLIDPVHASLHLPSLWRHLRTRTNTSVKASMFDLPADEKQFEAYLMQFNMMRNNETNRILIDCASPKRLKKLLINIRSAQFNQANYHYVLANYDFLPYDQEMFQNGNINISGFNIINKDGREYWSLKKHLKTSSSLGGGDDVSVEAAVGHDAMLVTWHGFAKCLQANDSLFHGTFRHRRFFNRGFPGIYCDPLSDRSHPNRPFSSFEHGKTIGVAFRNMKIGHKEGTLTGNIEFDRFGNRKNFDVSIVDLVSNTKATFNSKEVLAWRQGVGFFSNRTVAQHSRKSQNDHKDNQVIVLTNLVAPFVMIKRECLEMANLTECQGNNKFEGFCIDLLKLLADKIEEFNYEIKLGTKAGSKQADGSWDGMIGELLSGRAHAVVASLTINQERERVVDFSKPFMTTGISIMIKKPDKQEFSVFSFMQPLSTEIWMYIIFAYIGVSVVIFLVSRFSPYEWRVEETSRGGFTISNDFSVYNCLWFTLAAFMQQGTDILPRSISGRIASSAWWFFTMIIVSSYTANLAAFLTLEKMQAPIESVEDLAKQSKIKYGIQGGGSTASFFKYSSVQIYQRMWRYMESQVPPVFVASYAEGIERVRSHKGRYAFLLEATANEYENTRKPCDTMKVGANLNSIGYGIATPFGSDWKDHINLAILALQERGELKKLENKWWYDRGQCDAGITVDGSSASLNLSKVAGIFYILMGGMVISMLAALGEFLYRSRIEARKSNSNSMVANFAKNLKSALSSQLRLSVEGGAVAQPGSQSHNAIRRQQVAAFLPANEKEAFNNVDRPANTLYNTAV
T1 sequence (Q15KL0 1-366 partner): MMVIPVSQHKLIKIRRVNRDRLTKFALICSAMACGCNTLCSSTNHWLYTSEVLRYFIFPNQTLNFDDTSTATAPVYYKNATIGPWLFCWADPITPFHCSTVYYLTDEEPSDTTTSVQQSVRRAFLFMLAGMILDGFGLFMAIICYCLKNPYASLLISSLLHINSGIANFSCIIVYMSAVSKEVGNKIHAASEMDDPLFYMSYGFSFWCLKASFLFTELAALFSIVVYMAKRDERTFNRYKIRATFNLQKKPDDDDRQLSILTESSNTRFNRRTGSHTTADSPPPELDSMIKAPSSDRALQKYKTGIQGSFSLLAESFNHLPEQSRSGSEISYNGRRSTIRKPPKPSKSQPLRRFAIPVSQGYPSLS
T1 sequence (Q93212 24-594 partner): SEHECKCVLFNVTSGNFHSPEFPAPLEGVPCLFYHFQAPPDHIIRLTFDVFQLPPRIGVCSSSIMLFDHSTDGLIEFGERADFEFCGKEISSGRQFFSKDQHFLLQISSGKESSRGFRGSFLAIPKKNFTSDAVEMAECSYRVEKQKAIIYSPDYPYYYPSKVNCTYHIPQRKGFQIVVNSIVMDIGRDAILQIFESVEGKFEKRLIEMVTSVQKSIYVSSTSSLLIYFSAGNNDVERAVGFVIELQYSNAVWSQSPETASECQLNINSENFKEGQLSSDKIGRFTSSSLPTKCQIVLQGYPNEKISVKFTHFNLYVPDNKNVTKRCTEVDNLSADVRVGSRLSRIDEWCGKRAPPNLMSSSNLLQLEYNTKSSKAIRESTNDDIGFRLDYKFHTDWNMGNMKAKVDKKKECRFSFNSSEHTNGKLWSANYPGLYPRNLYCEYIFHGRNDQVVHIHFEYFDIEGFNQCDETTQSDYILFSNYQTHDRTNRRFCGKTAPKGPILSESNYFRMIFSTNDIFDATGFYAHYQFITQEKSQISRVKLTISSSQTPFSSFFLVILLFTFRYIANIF
The experiment in a line: two-electrode voltage clamp of Xenopus oocytes, glutamate dose-response current. The class given is cell-based. Conditions: agonist; inward cation current; with SOL-1 and STG-1; clamped -50 to -60 mV; pH 7.2; 0.1-10 mM glutamate for 20 s. For orientation: Two-electrode voltage clamp is typically applied to oocytes expressing channels or transporters.

As to `N[C@@H](CCC(=O)O)C(=O)O` [glutamate], the “two-electrode voltage clamp of Xenopus oocytes, glutamate dose-response current” value is given as “Dose-response relationship of GLR-1-expressing Xenopus oocyte”.

Values taken from article PMC9142520, “Molecular encoding and synaptic decoding of context during salt chemotaxis in C. elegans” (Nature Communications, 2022).
